Tests used:
Format in all cases: in vivo
[1] = test system: smallflower flatsedge (Cyperus difformis); test: Test C flooded paddy test; details: for Flatsedge plant response rating: Flooded Paddy, scale 0 to 100, 0 no effect, 100 complete control; for Plant response rating, Flatsedge / Plant response rating (scale 0 to 100), Flatsedge: flooded paddy test; for Plant response rating, Flatsedge: scale 0 to 100 (0 no effect, 100 complete control)
In short: (§1)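 Visual injury score, 0 (no effect) to 100 (complete control), relative to controls. Paddy plants treated at 2-leaf stage; greenhouse hold 12–14 d before rating.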

[2] = test system: barnyardgrass (Echinochloa crus-galli); test: Test C flooded paddy test; details: for Barnyardgrass plant response rating: Flooded Paddy, scale 0 to 100, 0 no effect, 100 complete control; for Plant response rating, Barnyardgrass / Plant response rating (scale 0 to 100), Barnyardgrass: flooded paddy test; for Plant response rating, Barnyardgrass: scale 0 to 100 (0 no effect, 100 complete control)
In short: as §1

[3] = test system: duck salad (Heteranthera limosa); test: Test C flooded paddy test; details: for Ducksalad plant response rating: Flooded Paddy, scale 0 to 100, 0 no effect, 100 complete control; for Plant response rating, Ducksalad / Plant response rating (scale 0 to 100), Ducksalad: flooded paddy test; for Plant response rating, Ducksalad: scale 0 to 100 (0 no effect, 100 complete control)
In short: as §1

[4] = test system: yellow nutsedge (Cyperus esculentus); test: Test C preemergence
Excerpt: (§2) Seeds of plant species selected from bermudagrass (Cynodon dactylon), Surinam grass (Brachiaria decumbens), cocklebur (Xanthium strumarium), corn (Zea mays), crabgrass (Digitaria sanguinalis), woolly cupgrass (Eriochloa villosa), giant foxtail (Setaria faberii), goosegrass (Eleusine indica), johnsongrass (Sorghum halepense), kochia (Kochia scoparia), lambsquarters (Chenopodium album), morningglory (Ipomoea hederacea), yellow nutsedge (Cyperus esculentus), pigweed (Amaranthus retroflexus), common ragweed (Ambrosia elatior), soybean (Glycine max) and velvetleaf (Abutilon theophrasti) were planted and treated preemergence with test chemicals formulated in a non-phytotoxic solvent mixture which included a surfactant.
(§3) At the same time, plants selected from these crop and weed species and also winter barley (Hordeum vulgare), blackgrass (Alopecurus myosuroides), canary grass (Phalaris minor), chickweed (Stellaria media), downy brome (Bromus tectorum), green foxtail (Setaria viridis), Italian ryegrass (Lolium multiflorum), wheat (Triticum aestivum), wild oat (Avena fatua) and windgrass (Apera spica-venti) were treated with postemergence applications of some of the test chemicals formulated in the same manner. Plants ranged in height from 2 to 18 cm (1- to 4-leaf stage) for postemergence treatments. Plant species in the flooded paddy test consisted of rice (Oryza saliva), smallflower flatsedge (Cyperus difformis), duck salad (Heteranthera limosa) and barnyardgrass (Echinochloa crus-galli) grown to the 2-leaf stage for testing. Treated plants and controls were maintained in a greenhouse for 12 to 14 days, after which time all species were compared to controls and visually evaluated. Plant response ratings, summarized in Table C, are based on a scale of 0 to 100 where 0 is no effect and 100 is complete control. A dash (-) response means no test result.

corn (Zea mays) = test: Test C preemergence
Excerpt: as §2, §3

[5] = test system: morningglory (Ipomoea hederacea); test: Test C preemergence
Excerpt: as §2, §3

[6] = test system: pigweed (Amaranthus retroflexus); test: Test C preemergence
Excerpt: as §2, §3

[7] = test system: lambsquarters (Chenopodium album); test: Test C preemergence
Excerpt: as §2, §3

[8] = test system: goosegrass (Eleusine indica); test: Test C preemergence
Excerpt: as §2, §3

[9] = test system: giant foxtail (Setaria faberii); test: Test C preemergence
Excerpt: as §2, §3

[10] = test system: crabgrass (Digitaria sanguinalis); test: Test C preemergence
Excerpt: as §2, §3

[11] = test system: Surinam grass (Brachiaria decumbens); test: Test C preemergence
Excerpt: as §2, §3

[12] = test system: velvetleaf (Abutilon theophrasti); test: Test C preemergence
Excerpt: as §2, §3

Nightshade = test: Test C preemergence
Excerpt: as §2, §3

[13] = test system: cocklebur (Xanthium strumarium); test: Test C preemergence
Excerpt: as §2, §3

[14] = test system: common ragweed (Ambrosia elatior); test: Test C preemergence
Excerpt: as §2, §3

[15] = test system: johnsongrass (Sorghum halepense); test: Test C preemergence
Excerpt: as §2, §3

soybean (Glycine max) = test: Test C preemergence
Excerpt: as §2, §3

Sunflower = test: Test C preemergence
Excerpt: as §2, §3

[16] = test system: bermudagrass (Cynodon dactylon); test: Test C preemergence
Excerpt: as §2, §3

[17] = test system: woolly cupgrass (Eriochloa villosa); test: Test C preemergence
Excerpt: as §2, §3

[18] = Rate 16 g/ha, visually evaluated after 12 to 14 days, 0 = no effect, 100 = complete control
[19] = under head Rate 16 g/ha, (own rate not given), after 12 to 14 days
[20] = Preemergence, Rate 500 g/ha, scale 0 to 100
[21] = Rate 62 g/ha, scale 0 to 100, 0 no effect, 100 complete control
[22] = preemergence, Rate 250 g/ha, visual evaluation after 12 to 14 days
[23] = preemergence, Rate 125 g/ha, scale 0 to 100, 0 no effect, 100 complete control

CC(C)(C)c1ccn(C2SCN(c3cccc(OC(F)(F)F)c3)C2=O)n1 (centres unmarked) [Compound 30]
Flatsedge plant response rating ([1]; Rate 250 g/ha): 100 | Flatsedge plant response rating ([1]; Rate 500 g/ha): 100 | Plant response rating, Flatsedge ([1]; Rate 62 g/ha): 90 | Plant response rating, Flatsedge ([1]; Rate 125 g/ha): 100 | Plant response rating (scale 0 to 100), Flatsedge [1, 18]: 90 | Plant response rating (scale 0 to 100), Flatsedge [1, 19]: 90 | Barnyardgrass plant response rating ([2]; Rate 250 g/ha): 100 | Barnyardgrass plant response rating ([2]; Rate 500 g/ha): 100 | Plant response rating, Barnyardgrass ([2]; Rate 62 g/ha): 100 | Plant response rating, Barnyardgrass ([2]; Rate 125 g/ha): 100 | Plant response rating (scale 0 to 100), Barnyardgrass [2, 18]: 80 | Plant response rating (scale 0 to 100), Barnyardgrass [2, 19]: 60 | Ducksalad plant response rating ([3]; Rate 250 g/ha): 100 | Ducksalad plant response rating ([3]; Rate 500 g/ha): 100 | Plant response rating, Ducksalad ([3]; Rate 62 g/ha): 70 | Plant response rating, Ducksalad ([3]; Rate 125 g/ha): 100 | Plant response rating (scale 0 to 100), Ducksalad [3, 18]: 50 | Plant response rating (scale 0 to 100), Ducksalad [3, 19]: 0 | Plant response rating, Nutsedge [4, 20]: 40 | Plant response rating, Nutsedge [4, 21]: 20 | Plant response rating (0 to 100), Nutsedge [4, 22]: 40 | Plant response rating, Corn (corn (Zea mays); [20]): 50 | Plant response rating, Corn (corn (Zea mays); [21]): 30 | Plant response rating (0 to 100), Corn (corn (Zea mays); [22]): 50 | Plant response rating, Corn (corn (Zea mays); [23]): 40 | Plant response rating, Morningglory [5, 20]: 80 | Plant response rating, Morningglory [5, 21]: 30 | Plant response rating (0 to 100), Morningglory [5, 22]: 80 | Plant response rating, Morningglory [5, 23]: 30 | Plant response rating, Pigweed [6, 20]: 100 | Plant response rating, Pigweed [6, 21]: 90 | Plant response rating (0 to 100), Pigweed [6, 22]: 90 | Plant response rating, Pigweed [6, 23]: 50 | Plant response rating, Lambsquarters [7, 20]: 100 | Plant response rating, Lambsquarters [7, 21]: 100 | Plant response rating (0 to 100), Lambsquarters [7, 22]: 100 | Plant response rating, Lambsquarters [7, 23]: 100 | Plant response rating, Goosegrass [8, 20]: 100 | Plant response rating, Goosegrass [8, 21]: 100 | Plant response rating (0 to 100), Goosegrass [8, 22]: 100 | Plant response rating, Goosegrass [8, 23]: 100 | Plant response rating, Foxtail, Giant [9, 20]: 100 | Plant response rating, Foxtail, Giant [9, 21]: 80 | Plant response rating (0 to 100), Foxtail, Giant [9, 22]: 90 | Plant response rating, Foxtail, Giant [9, 23]: 60 | Plant response rating, Crabgrass [10, 20]: 100 | Plant response rating, Crabgrass [10, 21]: 100 | Plant response rating (0 to 100), Crabgrass [10, 22]: 100 | Plant response rating, Crabgrass [10, 23]: 100 | Plant response rating, Surinam grass [11, 20]: 60 | Plant response rating, Surinam grass [11, 21]: 20 | Plant response rating (0 to 100), Surinam grass [11, 22]: 40 | Plant response rating, Surinam grass [11, 23]: 40 | Plant response rating, Velvetleaf [12, 20]: 30 | Plant response rating, Velvetleaf [12, 21]: 0 | Plant response rating (0 to 100), Velvetleaf [12, 22]: 0 | Plant response rating, Velvetleaf [12, 23]: 0 | Plant response rating, Nightshade (Nightshade; [21]): 80 | Plant response rating, Nightshade (Nightshade; Rate 125 g/ha, scale 0 to 100, 0 no effect, 100 complete control): 90 | Plant response rating, Nightshade (Nightshade; Rate 500 g/ha, scale 0 to 100): 100 | Plant response rating, Cocklebur [13, 20]: 80 | Plant response rating, Cocklebur [13, 21]: 0 | Plant response rating (0 to 100), Cocklebur [13, 22]: 0 | Plant response rating, Cocklebur [13, 23]: 0 | Plant response rating, Ragweed, Common [14, 20]: 100 | Plant response rating, Ragweed, Common [14, 21]: 0 | Plant response rating (0 to 100), Ragweed, Common [14, 22]: 90 | Plant response rating, Ragweed, Common [14, 23]: 90 | Plant response rating, Johnsongrass [15, 20]: 100 | Plant response rating, Johnsongrass [15, 21]: 30 | Plant response rating (0 to 100), Johnsongrass [15, 22]: 90 | Plant response rating, Johnsongrass [15, 23]: 40 | Plant response rating, Soybean (soybean (Glycine max); [20]): 70 | Plant response rating, Soybean (soybean (Glycine max); [21]): 30 | Plant response rating (0 to 100), Soybean (soybean (Glycine max); [22]): 70 | Plant response rating, Soybean (soybean (Glycine max); [23]): 70 | Plant response rating, Sunflower (Sunflower; [21]): 0 | Plant response rating, Sunflower (Sunflower; Rate 500 g/ha, scale 0 to 100): 100 | Plant response rating, Bermudagrass [16, 20]: 100 | Plant response rating, Bermudagrass [16, 21]: 100 | Plant response rating (0 to 100 where 0 is no effect and 100 is complete control), Bermudagrass [16, 22]: 100 | Plant response rating, Bermudagrass [16, 23]: 100 | Plant response rating, Cupgrass, Woolly [17, 20]: 100 | Plant response rating, Cupgrass, Woolly [17, 21]: 70 | Plant response rating (0 to 100), Cupgrass, Woolly [17, 22]: 90 | Plant response rating, Cupgrass, Woolly [17, 23]: 70
